Measurements published in patent publication US20220226270A1, “VERY-LONG-CHAIN POLYUNSATURATED FATTY ACIDS, ELOVANOID HYDROXYLATED DERIVATIVES, AND METHODS OF USE” (Board of Supervisors of Louisiana State University and …, priority 2019, published 2022).

Tested on: Sprague-Dawley rats, middle cerebral artery occlusion (MCAo)
Assay: Experimental ischemic stroke, 2 h middle cerebral artery occlusion (MCAo)
Assay type: in vivo, rat
Conditions: for reduction of total lesion volume compared to CSF-treated group: T2WI on day 7, 5 μg/50 μl into right lateral ventricle 1 h after 2 h of MCAo; for IgG staining intensity compared with the CSF-treated group / IgG staining in the cortex: at 7 days; for IgG staining intensity compared with the CSF-treated group: ipsilateral hemisphere; for IgG immunoreactivity in cortex, subcortex and whole hemisphere (total): versus the vehicle group (FIG. 22B)
Experimental: Middle cerebral artery occlusion and cannula implantation into the right lateral ventricle: Male Sprague-Dawley rats (Charles River Lab., Wilmington, Mass.) weighing 280-340 g were fasted overnight but allowed free access to water. Atropine sulfate (0.5 mg/kg, i.p.) was injected 10 mins before anesthesia. Anesthesia was induced with 3% isoflurane in a mixture of 70% nitrous oxide and 30% oxygen. All rats were orally intubated and mechanically ventilated. During ventilation, the animals were paralyzed with pancuronium bromide (0.6 mg/kg, i.p.). The catheters were implanted into the right femoral artery and vein for the blood sampling and infusion of drug. Serial analyses of arterial blood gases, plasma glucose, arterial blood pressure and heart beating rate were conducted before and during surgical procedure. Rectal (CMA/150 Temperature Controller, CMA/Microdialysis AB, Stockholm, Sweden) and cranial (temporalis muscle; Omega Engineering, Stamford, Conn.) temperatures were closely monitored before, during and after MCAo. Rectal temperature and body weight were monitored daily until sacrifice.
Rats underwent 2 h of right middle cerebral artery occlusion (MCAo) by an intraluminal-filament. In brief, the right common carotid artery (CCA) bifurcation was exposed through a midline neck incision and the occipital artery branches of the external carotid artery were isolated, ligated and dissected. After careful isolation of the internal carotid artery (ICA), a 3-0 monofilament coated with poly-L-lysine was advanced through the ICA to the MCA until mild resistance was felt. The neck incision was closed with a silk suture and the animals were then allowed to recover. After 2 h of MCAo, rats were re-anesthetized with the same anesthetic combination. Temperature probes were re-inserted, and intraluminal sutures were carefully removed. The animals given free access to food and water for 7 days.
Thirty minutes after suture removal, a brain infusion cannula was implanted into the right lateral ventricle for treatment administration in each rat. Rats were anesthetized with 3% isoflurane and were secured to a stereotaxic apparatus with skull leveled between bregma and lambda. A sterile stainless steel cannula (5-mm long) was implanted into the lateral ventricle using the stereotaxic coordinates (0.2 mm caudal to bregma, 2 mm lateral to midline, and 5 mm below the dura). Cannulas were removed after treatment was completed.
Treatment: Elovanoids (ELV) as sodium salts (Na) or methyl esters (Me) were dissolved in artificial cerebral spinal fluid (CSF) and administered into right lateral ventricle 1 hour after 2 h of MCAo. The following ELVs were used: ELV-N32-Na, ELV-N32-Me, ELV-N34-Na and ELV-N34-Me (5 μg/50 μl) or CSF (50 μl). All treatments were administered by a researcher blinded to the treatment groups.
Neurological/Behavioral Tests: Behavioral tests were performed by an observer blinded to the treatment groups at 60 mins (during MCAo) and then on days 1, 2, 3 and 7 after MCAo. The battery consisted of two tests that have been used previously to evaluate various aspects of neurologic function: (1) the postural reflex test, to examine upper body posture while the animal is suspended by the tail; and (2) the forelimb placing test, to examine sensorimotor integration in forelimb placing responses to visual, tactile and proprioceptive stimuli. Neurological function was graded on a scale of 0-12 (normal score=0, maximal score=12).
Magnetic resonance imaging (MRI) acquisition and analysis of total lesion, core and penumbra volumes: High resolution ex vivo MRI was performed on 4% paraformaldehyde-fixed brains on day 7 using an 11.7T Bruker Advance 8.9 cm horizontal bore instrument equipped with an 89 mm (ID) receiver coil (Bruker Biospin, Billerica, Mass.). T2 weighted images (T2WI), diffusion weighted images (DWI), 3D volumes, and apparent diffusion coefficient (ADC) maps were collected. T2 and ADC maps were computed from T2WI and DWI, respectively. […]

| Compound | reduction of total lesion volume compared to CSF-treated group | IgG staining intensity compared with the CSF-treated group | IgG staining in the cortex | IgG immunoreactivity in cortex, subcortex and whole hemisphere (total) |
| --- | --- | --- | --- | --- |
| CC/C=C\C[C@H](O)\C=C/C=C/C=C/[C@H](O)C/C=C\C/C=C\CCCCCCCCCCCCC(=O)OC [ELV-N32-Me, methyl (14Z,17Z,20R,21E,23E,25Z,27S,29Z)-20,27-dihydroxydotriaconta-14,17,21,23,25,29-hexaenoate] | 56% | similar | – | – |
| CC/C=C\C[C@H](O)\C=C/C=C/C=C/[C@H](O)C/C=C\C/C=C\CCCCCCCCCCCCC(=O)[O-].[Na+] [ELV-N32-Na, sodium (14Z,17Z,20R,21E,23E,25Z,27S,29Z)-20,27-dihydroxydotriaconta-14,17,21,23,25,29-hexaenoate] | 60% | similar | – | – |
| CC/C=C\C[C@H](O)\C=C/C=C/C=C/[C@H](O)C/C=C\C/C=C\CCCCCCCCCCCCCCC(=O)OC [ELV-N34-Me, methyl (16Z,19Z,22R,23E,25E,27Z,29S,31Z)-22,29-dihydroxytetratriaconta-16,19,23,25,27,31-hexaenoate] | 91% | – | significantly less IgG staining | significantly reduced |
| CC/C=C\C[C@H](O)\C=C/C=C/C=C/[C@H](O)C/C=C\C/C=C\CCCCCCCCCCCCCCC(=O)[O-].[Na+] [ELV-N34-Na, sodium (16Z,19Z,22R,23E,25E,27Z,29S,31Z)-22,29-dihydroxytetratriaconta-16,19,23,25,27,31-hexaenoate] | 99% | – | significantly less IgG staining | significantly reduced |
